# Test results reported in US10206944B2, “Chondroitin for use in medicine” (ALTERGON S.A., priority 2012, dated 2019).
# Columns and labels:
# HT-1376 cells = experiment: Flow cytometry of apoptotic and necrotic cells (Annexin V-FITC/PI); type: cell-based, human; set-up: unit not given here; details: 48 h, alone or combined
# Method: Flow cytometry was used to evaluate the quantity of apoptotic or necrotic cells. Fluorescein isothiocyanate (Annexin V-FITC) combined with propidium iodide (PI) was used as marker; the apoptotic cells were Annexin V-FITC positive and PI negative, and the necrotic cells were Annexin V-FITC positive and PI positive. The cells were labelled by incubating them with Annexin V-FITC (Diagnostics MedSystems) and PI (Sigma) in a binding buffer (10 mM HEPES, pH 7.4, 150 mM NaCl, 5 mM KCl, 1 mM MgCl2, 2.5 mM CaCl2) for 10 min at ambient temperature, and then washing and resuspending the cell material in the same buffer. The apoptotic and necrotic cells were analysed by flow cytometry (FACScan, Becton-Dickinson), acquiring an average of 2×10^4 events per sample, with determinations in triplicate on three separate experiments.
# [1] = test system: human bladder carcinoma cell line HT-1376; experiment: Inhibition of growth of bladder cancer cells and polysaccharide-antitumoral synergism; type: cell-based; details: HT-1376, after 72 h, product taken individually
# Method: Human bladder cancer cell lines HT-1376 were used as system model, evaluating the ability of different combinations of GEM or MCC and C or CS to inhibit growth.
# Human bladder carcinoma cell line HT-1376 (American Type Tissue Cultures Collection, Rockville, Md.) was cultured in DMEM supplemented with heat inactivated 10% foetal bovine serum (FBS), 20 mM 4,2-hydroxyethyl-1-piperazinyl-ethanesulphonic acid (HEPES), 100 U/mL penicillin, 100 µg/mL streptomycin, 1% w/v sodium L-glutamine and 1% w/v pyruvate. The cells were cultured in a humidified atmosphere comprising 95% air/5% CO2 at 37° C. For the study of synergism between C or CS and MMC or GEM in inhibiting the growth of HT-1376, the cells were seeded in 96-well plates at a density of 6*10^3 cells/well. After 24 hours' incubation at 37° C. the cells were treated with different concentrations of C or CS or GEM or MMC, and polysaccharide-antitumoral combinations thereof. The evaluation of polysaccharide-antitumoral synergism was based on analysis after 72 hours' treatment of the fraction curves of the surviving cells versus the concentration of antitumoral, conducted with the Calcusyn computer program (Biosoft, Ferguson, Mo.). The combination index values (CI) of <1, 1 and >1 indicate synergy, additivity and antagonism respectively in the polysaccharide-antitumoral interaction.
# SOD-2 [2] = experiment: Western blotting protein expression of SOD-2 in IL-1β-treated human chondrocytes; type: cell-based; details: densitometric analysis of Western blotting versus tubulin; control = 1
# Method: (§1) In a standard experiment, 10^4 cells were seeded per well of a 24-well multiwell plate, and after 5 days, when confluency was reached, the cells were starved for 24 hours (incubation in DMEM with 0.5% FBS). The cells were then treated for 2 h with 1% w/v of chondroitin (C) or chondroitin sulphate (CS) (endotoxin content ≤0.1 EU/mg), in DMEM without FBS; the control was maintained under the same conditions, but without the addition of C or CS. IL-1 β at the concentration of 10 ng/mL was then added to the cultures. After 24 h hours' incubation the cells were recovered and the RNA was extracted from them with Trizol Reagent, as described in the kit manual (Life Technologies Ltd, Milan Italy). The gene expression values are confirmed by the protein expression data obtained in Western blotting by densitometric analysis of the GRP78 protein bands and SOD2 compared with the constitutive tubulin gene (Table 6)
# SOD-2 [3] = experiment: Real-Time PCR gene expression of SOD-2 in IL-1β-treated human chondrocytes; type: cell-based; details: 2 h pre-treatment 1% w/v, IL-1β 10 ng/mL 24 h; untreated cells taken as 1
# Source text: The objective of the study was to evaluate the effects of chondroitin or chondroitin sulphate on gene expression of GRP78 and SOD-2 in human chondrocytes, after treatment with the pro-inflammatory cytokine IL-1β.
# Human chondrocytes extracted from nasal cartilage treated with IL-1β, a pro-inflammatory cytokine which acts as mediator in the activation of the biological mechanisms underlying the onset of OA, were used in the study. In particular, the modulation of two markers involved in the manifestation of the inflammatory state, chaperonin GRP78 and the enzyme superoxide dismutase (SOD-2), was evaluated.
# as §1, with “The gene expression values are confirmed by the protein expression data obtained in Western blotting by densitometric analysis of the GRP78 protein bands and SOD2 compared with the constitutive tubulin gene (Table 6)” left out
# GRP78 = experiment: Western blotting protein expression of GRP78 in IL-1β-treated human chondrocytes; type: cell-based; details: densitometric analysis of Western blotting versus tubulin; control = 1
# Method: as §1
# [4] = test system: volunteers suffering from dry eye; experiment: Ophthalmic eyedrops in volunteers suffering from dry eye; type: in vivo, human
# Method: Two ophthalmic preparations were compared: a conventional one based on hyaluronic acid and one based on chondroitin, both at the concentration of 3% w/v in NaCl saline solution at pH 7.4. The eyedrops were prepared in single-dose packaging sterilised in the autoclave. […] The volunteers, of both sexes, aged between 45 and 60 years, were randomised into two groups of 15, and treated with the two types of eyedrops. Under medical control the inflammatory state of the corneal surface was evaluated at the beginning and end of the treatment, and the evaluations of the treated patients relating to tolerability, duration of the wetting effect, and visual alteration after application, were recorded. A scale of 1 to 5 was used for the clinical evaluations and the patients' evaluations, where 5 represents optimum resolution of the pathological condition and its sequelae. […]
# [5] = test system: volunteers suffering from severe impairment of the knee joint; experiment: Viscosupplementation and cartilage repair in volunteers with knee joint impairment; type: in vivo, human
# Method: The aim of the study was to evaluate the therapeutic potential of the hyaluronic acid-chondroitin combination (HA-C) in joint disease associated with damage to the cartilaginous component of the joint. The study was conducted on 30 volunteers suffering from severe impairment of the knee joint, with damage to the cartilaginous component, evident ongoing inflammatory symptoms, swelling and pain. The volunteers, aged between 25 and 45 years, of both sexes, were randomised into three groups of 10; the control group was treated with saline, the HA group with hyaluronic acid and the HA-C group with a mixture of hyaluronic acid and chondroitin. The viscosupplementation treatment was performed 3 times at 2-month intervals by injecting into the joint 2 mL of a sterile, pyrogen-free solution consisting of a saline solution (0.9% NaCl) for the control group, a 20 mg/mL solution of hyaluronic acid 1,200 KDa for the HA group and a 20 mg/mL solution of hyaluronic acid 1,200 KDa+20 mg/mL of chondroitin for the HA-C group. Before and at the end of the 6-month study the volunteers underwent an X-ray and MRI scan of the joint. Three orthopaedic surgeons independently evaluated the development of the pathological symptoms (pain, inflammatory state and swelling), and repair of cartilage damage, over time (before treatment, and after 3 and 6 months), on a scale of 1 to 5 (where 1 represents absence of healing, and 5 indicates total remission of the pathological symptoms and complete repair of the damage to the cartilage tissue).
# [6] = 0.04 μg/mL of C or CS and 0.15 μg/mL of GEM
# [7] = 5.7 μg/mL of C or CS and 1.7 μg/mL of MMC
compound,measurement,setting,value
"Nc1ccn([C@@H]2O[C@H](CO)[C@@H](O)C2(F)F)c(=O)n1 [GEM, gemcitabine]",Cell state: apoptotic advanced,HT-1376 cells; [6],2 ± 1
same,Cell state: apoptotic early,HT-1376 cells; [6],1 ± 1
same,Cell state: necrotic,HT-1376 cells; [6],16 ± 3
same,Cell state: viable,HT-1376 cells; [6],81 ± 3
same,IC50,"[1]; Homo sapiens, read-out: IC50 (50% inhibition of growth)",0.5 µg/mL
"CO[C@@]12[C@H](COC(N)=O)C3=C(C(=O)C(C)=C(N)C3=O)N1C[C@@H]1N[C@@H]12 [MMC, mitomycin-C]",Cell state: apoptotic advanced,HT-1376 cells; [7],2 ± 1
same,Cell state: apoptotic early,HT-1376 cells; [7],1 ± 1
same,Cell state: necrotic,HT-1376 cells; [7],33 ± 1
same,Cell state: viable,HT-1376 cells; [7],64 ± 5
same,IC50 (50% inhibition of growth),[1],18 μ/mL
"IL-1β: pro-inflammatory cytokine, 10 ng/mL, positive control",Protein expression value of SOD-2,SOD-2 [2],1.96 ± 0.20
same,gene expression of SOD-2,SOD-2 [3],22 ± 4
same,Protein expression value of GRP78,GRP78,1.15 ± 0.15
"hyaluronic acid [HA, reference compound]",Doctor: corneal inflammation,"[4]; 0 days, 3% w/v eyedrops, scale of 1 to 5, 5 optimum",1.0 ± 0.1
same,Patient: absence of visual alteration,"[4]; 10 days, scale of 1 to 5",3.5 ± 0.2
same,Patient: tolerability,"[4]; 10 days, scale of 1 to 5",3.8 ± 0.2
same,Patient: wetting effect,"[4]; 10 days, scale of 1 to 5",4.0 ± 0.2
same,Patient: absence of visual alteration,"[4]; 20 days, scale of 1 to 5",3.2 ± 0.1
same,Patient: tolerability,"[4]; 20 days, scale of 1 to 5",3.7 ± 0.3
same,Patient: wetting effect,"[4]; 20 days, scale of 1 to 5",4.1 ± 0.3
same,Doctor: corneal inflammation,"[4]; 30 days, 3% w/v eyedrops 4 times a day, scale of 1 to 5",3.5 ± 0.2
same,Patient: absence of visual alteration,"[4]; 30 days, scale of 1 to 5",3.6 ± 0.2
same,Patient: tolerability,"[4]; 30 days, scale of 1 to 5",3.9 ± 0.3
same,Patient: wetting effect,"[4]; 30 days, scale of 1 to 5",4.4 ± 0.3
same,Cartilage repair,"[5]; 0 months, scale of 1 to 5",1.0 ± 0.1
same,Inflammation,"[5]; 0 months, scale of 1 to 5",1.3 ± 0.2
same,Swelling,"[5]; 0 months, scale of 1 to 5",1.2 ± 0.1
same,Pain,"[5]; 0 months, scale of 1 to 5, 5 total remission",1.6 ± 0.2
same,Cartilage repair,"[5]; 3 months, scale of 1 to 5",1.5 ± 0.2
same,Inflammation,"[5]; 3 months, scale of 1 to 5",3.1 ± 0.2
same,Pain,"[5]; 3 months, scale of 1 to 5",3.1 ± 0.4
same,Swelling,"[5]; 3 months, scale of 1 to 5",3.1 ± 0.3
same,Inflammation,"[5]; 6 months, scale of 1 to 5",4.1 ± 0.5
same,Pain,"[5]; 6 months, scale of 1 to 5",4.0 ± 0.3
